Test results as given in patent US9439414B2, “Sperm diluent solution and method for artificial insemination using same” (HIROSHIMA UNIVERSITY, priority 2009, dated 2016).

How the values were obtained:
[1] = tested on: pig sperm; test: Sperm motility by motility analyzer (CASA); assay type: cell-based; conditions: EGTA 0, 3, 6, 9 mM added to Modena solution (6.3 mM EDTA); 1, 3 or 6 hours
Experimental: Media having concentrations of EDTA of 0 mM, 3 mM, 6.3 mM and 12 mM were prepared. The 0-mM-EDTA medium and the 3-mM-EDTA medium were prepared by removing EDTA-2Na from Modena solution and adjusting the EDTA concentration to 0 mM and 3 mM, respectively. As the 6.3-mM-EDTA medium, Modena solution was used as it is. Further, the 12-mM-EDTA medium was prepared by adding EDTA-2Na to Modena solution to attain an EDTA concentration of 12 mM.
To each medium, frozen sperm were added after thawing as in Experimental Example 1, and the sperm were cultured. The culturing time was 1 hour, 3 hours or 6 hours.
After the culture, the sperm motility was calculated using a motility analyzer (computer-assisted sperm motility analysis (CASA) system). On a plate prewarmed to 38° C., 5 μl of the medium after the culture was placed, and the ratio of moving sperm was analyzed using a computer.
0-mM-EGTA medium, 3-mM-EGTA medium, 6-mM-EGTA medium and 9-mM-EGTA medium were prepared. As the 0-mM-EGTA medium, Modena solution was used as it is. Further, the 3-mM-EGTA medium, 6-mM-EGTA medium and 9-mM-EGTA medium were prepared by adding EGTA to Modena solution to attain EGTA concentrations of 3 mM, 6 mM and 9 mM, respectively, in the medium. Since addition of EGTA results in more acidic pH of the medium, NaOH was added to the medium to adjust pH to 7.0 to 7.1. […]

[2] = tested on: pig sperm; test: Sperm acrosomal damage rate (FITC-peanut lectin staining); assay type: cell-based; conditions: EGTA 0, 3, 6, 9 mM in Modena solution
Experimental: 0-mM-EGTA medium, 3-mM-EGTA medium, 6-mM-EGTA medium and 9-mM-EGTA medium were prepared. As the 0-mM-EGTA medium, Modena solution was used as it is. Further, the 3-mM-EGTA medium, 6-mM-EGTA medium and 9-mM-EGTA medium were prepared by adding EGTA to Modena solution to attain EGTA concentrations of 3 mM, 6 mM and 9 mM, respectively, in the medium. Since addition of EGTA results in more acidic pH of the medium, NaOH was added to the medium to adjust pH to 7.0 to 7.1.
To each medium, frozen sperm were added after thawing as in Experimental Example 1, and the sperm was cultured. The culturing time was 1 hour, 3 hours or 6 hours.
The measurement of the sperm motility and detection of phosphorylation of tyrosine residues of the sperm proteins were carried out in the same manner as described above. The measurement of the sperm acrosomal damage rate was carried out as follows. On a slide glass, 5 μl of the medium was smeared, followed by air drying and 10 minutes of fixation with 99% methanol. After drying the methanol, marking was done with a liquid pen. FITC-peanut lectin was added to the smeared sperm (about 30 μl per sample), followed by 30 minutes of incubation at 37° C. in a moist atmosphere. Thereafter, the sperm were washed with PBS (5 minutes×3 times) and embedded in DAPI (VECTOR, VECTASHIELD with DAPI, H-1200) and then in manicure, followed by observation of the sperm.

[3] = tested on: mother pigs and piglets; test: Health of mother pigs and piglets after artificial insemination with the cortisol-containing sperm diluent; assay type: in vivo, pig; conditions: 5 μg cortisol injected to the uterus
Experimental: Although the above adrenocortical hormone (a steroid hormone such as cortisol) is usually injected at a dose of 5 to 50 mg per individual for therapy of livestock, only 5 μg was injected to the uterus in the artificial insemination of the present Example. Thus, since this dose is about 1,000 to 10,000 times smaller than the dose in the cases of therapeutic use, it is thought that the meat of the mother pig and the fetuses in the uterus are not affected.

| deformed piglets after the delivery [3] | Compound | sperm motility (FIG. 3) [1] | sperm acrosomal damage rate (FIG. 5) [2] |
| --- | --- | --- | --- |
| – | O=C(O)CN(CCOCCOCCN(CC(=O)O)CC(=O)O)CC(=O)O [EGTA, ethylene glycol Bis(2-aminoethyl)-N,N,N′,N′-tetraacetic acid] | high | low |
| no deformed piglet was found | C[C@]12CCC(=O)C=C1CC[C@@H]1[C@@H]2[C@@H](O)C[C@@]2(C)[C@H]1CC[C@]2(O)C(=O)CO [cortisol] | – | – |
